Data reported in ChEMBL document CHEMBL1932960, “Discovery and characterization of a potent and selective antagonist of melanin-concentrating hormone receptor 2” (Bioorg Med Chem Lett, 2012).
The source made the active and inactive calls. The calls are words filed in the database; no cut-off is given here.

Columns and labels:
[1] = target: T1, Melanin-concentrating hormone receptor 2 (Homo sapiens, UniProt Q969V1); assay: Antagonist activity at human MCHR2 receptor expressed in CHO cells assessed as inhibition of MCH-stimulated Ca2+ flux preincubated for 10 mins prior to MCH-stimulation by FLIPR assay; format: functional, cell-based
D(2) dopamine receptor = D(2) dopamine receptor (Homo sapiens, UniProt P14416); assay: Inhibition of dopamine D2 receptor
[2] = target: Sodium-dependent serotonin transporter (Homo sapiens, UniProt P31645); assay: Inhibition of serotonin transporter
[3] = Clearance in rat at 0.5 mg/kg, iv; format: ADME, organism-based; design: dose 0.5 mg/kg, route intravenous; details: in vivo
[4] = Mean residence time in rat at 0.5 mg/kg, iv; format: ADME, organism-based; design: dose 0.5 mg/kg, route intravenous; details: in vivo
[5] = Oral bioavailability in rat at 2 mg/kg; format: ADME, organism-based; details: in vivo
[6] = target: T2, Melanin-concentrating hormone receptor 1 (Homo sapiens, UniProt Q99705); assay: Antagonist activity at MCHR1 by FLIPR assay; format: functional
[7] = target: T1, Melanin-concentrating hormone receptor 2; assay: Displacement of [3H]N-(1'-((9-ethyl-9H-carbazol-3-yl)methyl)-2,3-dihydrospiro[indene-1,4'-piperidine]-3-yl)acetamide from human MCHR2 expressed in HEK293 cells after 2 hrs; format: cell-based
[8] = target: T2, Melanin-concentrating hormone receptor 1; assay: Binding affinity to MCHR1 up to 10 uM
[9] = target: T2, Melanin-concentrating hormone receptor 1; assay: Antagonist activity at MCHR1 up to 50 uM by FLIPR assay; format: functional
[10] = Clearance in Beagle dog; format: ADME, organism-based, Canis lupus familiaris; details: in vivo
[11] = Mean residence time in Beagle dog; format: ADME, organism-based, Canis lupus familiaris; details: in vivo
[12] = Oral bioavailability in Beagle dog at 2 mg/kg; format: ADME, organism-based, Canis lupus familiaris; details: in vivo
[13] = Clearance in rhesus monkey; format: ADME, organism-based, Macaca mulatta; details: in vivo
[14] = Mean residence time in rhesus monkey; format: ADME, organism-based, Macaca mulatta; details: in vivo
[15] = Oral bioavailability in rhesus monkey at 2 mg/kg; format: ADME, organism-based, Macaca mulatta; details: in vivo
Homo sapiens [16] = species on record: Homo sapiens; assay: Selectivity ratio of IC50 for serotonin transporter to IC50 for human MCHR2 receptor
Homo sapiens [17] = species on record: Homo sapiens; assay: Selectivity ratio of IC50 for dopamine D2 receptor to IC50 for human MCHR2 receptor
[18] = target: Voltage-gated inwardly rectifying potassium channel KCNH2 (Homo sapiens, UniProt Q12809); assay: Inhibition of human ERG by rubidium [86Rb] efflux assay
Voltage-gated inwardly rectifying potassium channel KCNH2, sequence (Q12809 whole entry): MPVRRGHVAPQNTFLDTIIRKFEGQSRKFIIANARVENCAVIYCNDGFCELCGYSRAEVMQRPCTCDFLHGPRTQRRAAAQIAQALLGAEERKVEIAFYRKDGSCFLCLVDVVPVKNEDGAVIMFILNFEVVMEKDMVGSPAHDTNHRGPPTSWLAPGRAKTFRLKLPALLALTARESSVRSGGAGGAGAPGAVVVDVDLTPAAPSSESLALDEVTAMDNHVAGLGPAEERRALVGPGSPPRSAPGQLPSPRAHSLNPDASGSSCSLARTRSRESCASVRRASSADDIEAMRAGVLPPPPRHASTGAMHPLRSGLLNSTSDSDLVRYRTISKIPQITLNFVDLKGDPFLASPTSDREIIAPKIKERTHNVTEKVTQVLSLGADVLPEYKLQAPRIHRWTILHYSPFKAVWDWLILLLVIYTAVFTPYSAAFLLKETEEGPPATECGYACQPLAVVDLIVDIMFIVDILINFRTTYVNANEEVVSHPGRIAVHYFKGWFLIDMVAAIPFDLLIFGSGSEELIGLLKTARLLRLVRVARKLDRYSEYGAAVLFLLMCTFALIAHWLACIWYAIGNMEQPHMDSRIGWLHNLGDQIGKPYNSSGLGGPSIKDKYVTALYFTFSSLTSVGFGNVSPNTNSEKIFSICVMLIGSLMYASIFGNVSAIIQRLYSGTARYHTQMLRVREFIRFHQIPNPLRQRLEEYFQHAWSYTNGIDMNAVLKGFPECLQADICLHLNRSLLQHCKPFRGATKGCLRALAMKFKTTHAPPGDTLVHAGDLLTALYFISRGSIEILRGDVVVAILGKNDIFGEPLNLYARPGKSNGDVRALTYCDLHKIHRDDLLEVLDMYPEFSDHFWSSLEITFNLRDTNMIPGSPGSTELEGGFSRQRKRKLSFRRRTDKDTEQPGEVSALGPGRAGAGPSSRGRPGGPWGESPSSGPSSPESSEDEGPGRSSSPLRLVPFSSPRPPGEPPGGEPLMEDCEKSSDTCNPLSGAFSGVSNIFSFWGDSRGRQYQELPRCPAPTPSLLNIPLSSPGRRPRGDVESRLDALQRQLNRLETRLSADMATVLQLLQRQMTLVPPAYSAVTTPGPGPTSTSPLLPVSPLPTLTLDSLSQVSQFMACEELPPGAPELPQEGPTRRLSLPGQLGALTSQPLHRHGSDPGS

T1 sequence (Q969V1 whole entry): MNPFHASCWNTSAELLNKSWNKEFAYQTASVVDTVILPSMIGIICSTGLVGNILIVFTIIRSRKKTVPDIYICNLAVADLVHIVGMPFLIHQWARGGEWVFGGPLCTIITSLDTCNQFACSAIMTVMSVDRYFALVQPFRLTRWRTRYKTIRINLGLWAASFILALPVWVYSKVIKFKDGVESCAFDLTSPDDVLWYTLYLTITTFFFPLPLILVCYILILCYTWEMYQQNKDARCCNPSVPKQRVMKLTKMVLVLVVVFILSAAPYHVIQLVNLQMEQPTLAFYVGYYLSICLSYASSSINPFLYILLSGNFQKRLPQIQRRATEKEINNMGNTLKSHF
T2 sequence (Q99705 whole entry): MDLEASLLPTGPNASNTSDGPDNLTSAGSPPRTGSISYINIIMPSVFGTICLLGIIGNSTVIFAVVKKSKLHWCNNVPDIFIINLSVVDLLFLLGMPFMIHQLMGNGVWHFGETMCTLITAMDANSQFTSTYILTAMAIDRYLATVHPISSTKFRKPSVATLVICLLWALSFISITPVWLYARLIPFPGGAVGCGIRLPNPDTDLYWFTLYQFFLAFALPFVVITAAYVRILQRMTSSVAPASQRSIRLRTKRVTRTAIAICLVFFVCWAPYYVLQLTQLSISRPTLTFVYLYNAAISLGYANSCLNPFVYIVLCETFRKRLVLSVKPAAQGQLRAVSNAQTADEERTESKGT
D(2) dopamine receptor, sequence (P14416 whole entry): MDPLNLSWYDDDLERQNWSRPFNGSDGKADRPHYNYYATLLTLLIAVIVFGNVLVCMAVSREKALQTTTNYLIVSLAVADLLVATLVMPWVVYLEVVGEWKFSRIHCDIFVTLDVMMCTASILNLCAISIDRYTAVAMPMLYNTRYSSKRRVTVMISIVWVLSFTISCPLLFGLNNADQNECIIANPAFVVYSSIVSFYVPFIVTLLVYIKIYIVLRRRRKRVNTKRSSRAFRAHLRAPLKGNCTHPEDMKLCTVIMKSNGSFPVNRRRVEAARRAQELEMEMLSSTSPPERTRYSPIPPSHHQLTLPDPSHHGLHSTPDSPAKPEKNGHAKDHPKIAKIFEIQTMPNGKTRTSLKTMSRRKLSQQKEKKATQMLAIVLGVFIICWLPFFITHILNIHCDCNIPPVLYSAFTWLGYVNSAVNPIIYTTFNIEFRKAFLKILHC
Sodium-dependent serotonin transporter, sequence (P31645 whole entry): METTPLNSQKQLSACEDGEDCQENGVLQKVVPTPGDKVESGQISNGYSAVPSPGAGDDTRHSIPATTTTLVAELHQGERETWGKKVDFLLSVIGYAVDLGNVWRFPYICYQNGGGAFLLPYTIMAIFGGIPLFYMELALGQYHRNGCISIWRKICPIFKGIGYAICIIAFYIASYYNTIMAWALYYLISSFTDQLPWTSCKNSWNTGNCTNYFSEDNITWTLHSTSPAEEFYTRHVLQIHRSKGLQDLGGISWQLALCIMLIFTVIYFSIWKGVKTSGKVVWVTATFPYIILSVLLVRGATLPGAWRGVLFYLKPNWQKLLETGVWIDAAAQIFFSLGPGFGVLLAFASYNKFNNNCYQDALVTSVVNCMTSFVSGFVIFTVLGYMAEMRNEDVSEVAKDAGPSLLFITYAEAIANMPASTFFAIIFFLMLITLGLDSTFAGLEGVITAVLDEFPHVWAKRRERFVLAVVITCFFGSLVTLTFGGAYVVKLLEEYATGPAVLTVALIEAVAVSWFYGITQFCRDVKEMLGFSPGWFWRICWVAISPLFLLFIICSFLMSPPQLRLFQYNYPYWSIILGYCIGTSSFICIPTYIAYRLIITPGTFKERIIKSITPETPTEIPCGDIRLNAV

## CCn1c2ccccc2c2cc(NC(=O)N3CCC4(C=Cc5ccccc54)CC3)ccc21
[1]
  IC50: 60000 nM

## COC(=O)n1c2ccccc2c2cc(CN3CCC4(C=Cc5ccccc54)CC3)ccc21
[1]
  IC50: 300 nM

## C1=CC2(CCN(Cc3ccc4[nH]c5ccccc5c4c3)CC2)c2ccccc21
[1]
  IC50: 100 nM

## CC(=O)N[C@H]1c2ccccc2C2(CCN(Cc3ccc4[nH]c5ccccc5c4c3)CC2)[C@@H]1O (racemic)
[1]
  IC50: 8 nM

## CC(=O)N[C@@H]1CC2(CCN(Cc3ccc4[nH]c5ccc(Cl)cc5c4c3)CC2)c2ccccc21
[1]
  IC50: 1 nM
D(2) dopamine receptor
  IC50: 500 nM
[2]
  IC50: 100 nM
[3]
  clearance: 13.3 mL/min/kg
[4]
  MRT: 9.2 h
[5]
  bioavailability: 49%

## CCn1c2ccccc2c2cc(CN3CCC4(CC3)c3ccccc3[C@H](O)[C@@H]4O)ccc21 (racemic)
[1]
  IC50: 250 nM

## CCn1c2ccccc2c2cc(CN3CCC4(C=Cc5ccccc54)CC3)ccc21
[1]
  IC50: 1000 nM
[6]
  IC50: 20000 nM

## CC(=O)N[C@H]1CC2(CCN(Cc3ccc4[nH]c5ccccc5c4c3)CC2)c2ccccc21
[1]
  IC50: 13 nM

## CC(=O)N[C@@H]1CC2(CCN(Cc3ccc4c(c3)c3ccccc3n4C(N)=O)CC2)c2ccccc21
[1]
  IC50: 1 nM
[7]
  Ki: 13 nM
[8]
  Activity: inactive
[9]
  Activity: inactive
D(2) dopamine receptor
  IC50: 1500 nM
[2]
  IC50: 10000 nM
[3]
  clearance: 16.7 mL/min/kg
[4]
  MRT: 18 h
[5]
  bioavailability: 37%
[10]
  clearance: 10 mL/min/kg
[11]
  MRT: 11 h
[12]
  bioavailability: 73%
[13]
  clearance: 10 mL/min/kg
[14]
  MRT: 6.1 h
[15]
  bioavailability: 47%
Homo sapiens [16]
  Ratio IC50: > 500
Homo sapiens [17]
  Ratio IC50: > 500
[18]
  IC50: 2000 nM

## CCn1c2ccccc2c2cc(CN3CCC4(CC3)c3ccccc3CC4NC(C)=O)ccc21 (racemic)
[1]
  IC50: 250 nM

## NC(=O)n1c2ccccc2c2cc(CN3CCC4(C=Cc5ccccc54)CC3)ccc21
[1]
  IC50: 4 nM

## CN(C)C(=O)n1c2ccccc2c2cc(CN3CCC4(C=Cc5ccccc54)CC3)ccc21
[1]
  IC50: 4 nM

## CCn1c2ccccc2c2cc(CCN3CCC4(C=Cc5ccccc54)CC3)ccc21
[1]
  IC50: 10000 nM

## CCn1c2ccccc2c2cc(CN3CCC4(CC3)c3ccccc3[C@H](O)[C@H]4O)ccc21 (racemic)
[1]
  IC50: 150 nM

## CC(=O)N[C@@H]1CC2(CCN(Cc3ccc4[nH]c5ccc(C(F)(F)F)cc5c4c3)CC2)c2ccccc21
[1]
  IC50: 678 nM

## CCn1c2ccccc2c2cc(CN3CCC4(CC3)CC(O)c3ccccc34)ccc21 (racemic)
[1]
  IC50: 200 nM

## CC(=O)N[C@@H]1CC2(CCN(Cc3ccc4[nH]c5ccc(Br)cc5c4c3)CC2)c2ccccc21
[1]
  IC50: 10 nM

## CC(=O)N[C@@H]1CC2(CCN(Cc3ccc4[nH]c5ccc(F)cc5c4c3)CC2)c2ccccc21
[1]
  IC50: 10 nM

## CS(=O)(=O)n1c2ccccc2c2cc(CN3CCC4(C=Cc5ccccc54)CC3)ccc21
[1]
  IC50: 200 nM

## CCC(=O)n1c2ccccc2c2cc(CN3CCC4(C=Cc5ccccc54)CC3)ccc21
[1]
  IC50: 100 nM

## CC(=O)n1c2ccccc2c2cc(CN3CCC4(C=Cc5ccccc54)CC3)ccc21
[1]
  IC50: 70 nM

## O[C@H]1Cc2ccccc2C12CCN(Cc1ccc3[nH]c4ccccc4c3c1)CC2
[1]
  IC50: 80 nM

## CCn1c2ccccc2c2cc(CN3CCC4(CC3)CC(NC(C)=O)c3ccccc34)ccc21 (racemic)
[1]
  IC50: 0.1 nM

## CC(=O)N[C@@H]1CC2(CCN(Cc3ccc4[nH]c5ccccc5c4c3)CC2)c2ccccc21
[1]
  IC50: 0.1 nM
[3]
  clearance: 20 mL/min/kg
[4]
  MRT: 18.2 h
[5]
  bioavailability: 7.5%

## CCn1c2ccccc2c2cc(C(=O)N3CCC4(C=Cc5ccccc54)CC3)ccc21
[1]
  IC50: 60000 nM

## CCn1c2ccccc2c2cc(CN3CCC4(CC3)c3ccccc3CC4O)ccc21 (racemic)
[1]
  IC50: 30 nM

## O[C@@H]1Cc2ccccc2C12CCN(Cc1ccc3[nH]c4ccccc4c3c1)CC2
[1]
  IC50: 10 nM
[3]
  clearance: 145 mL/min/kg
[4]
  MRT: 2.8 h
[5]
  bioavailability: 5.9%

## CCn1c2ccccc2c2cc(CCCN3CCC4(C=Cc5ccccc54)CC3)ccc21
[1]
  IC50: 15000 nM

## CCn1c2ccccc2c2cc(CN3CCC4(CC3)c3ccccc3[C@H](NC(C)=O)[C@H]4O)ccc21 (racemic)
[1]
  IC50: 100 nM
[3]
  clearance: 36.7 mL/min/kg
[4]
  MRT: 14.2 h
[5]
  bioavailability: 9%
